# Results taken from US20220259212A1, “INHIBITORS OF INDOLEAMINE 2,3-DIOXYGENASE AND/OR TRYPTOPHAN 2,3-DIOXYGENASE” (Idorsia Pharmaceuticals Ltd, priority 2019, published 2022).
# Columns and labels:
# IDO1 in SKOV3 cells = target: T1, IDO1 in SKOV3 cells (Homo sapiens, UniProt P14902); assay: Cell-based IDO inhibitory activity in IFNγ-stimulated SKOV3 cells (NFK + kynurenine by LCMS); conditions: IFNγ 50 ng/ml, 200 uM L-tryptophan, 24 hours
# T1 construct: SKOV3 cells (NCI, No. 0503405) which upregulate IDO1 after stimulation with IFNγ; host or cells: SKOV3 cells stimulated with IFNγ
# Text: 3) Testing Compounds for IDO/TDO Inhibitory Activity and Toxicity in Cell-Based Assays
# SW48 cells (ATCC, CCL-231) are used to measure compounds for TDO inhibitory activity and are routinely maintained in DMEM high glucose/GlutaMAX™/pyruvate 90% (v/v), FCS 10% (v/v), Penicilin/streptomycin 1% (v/v). SKOV3 cells (NCI, No. 0503405) which upregulate IDO1 after stimulation with IFNγ are used to measure compounds for IDO inhibitory activity. SKOV3 cells are routinely maintained in RPMI 90% (v/v), FCS 10% (v/v), Penicilin/streptomycin 1% (v/v). SW48 or SKOV3 cells are seeded in 384 well plates at a density of 8000 cells in 45 ul per well or 4000 cells in 45 ul per well, respectively. Plates are incubated at 37° C./5% CO2 for 24 hours. On the next day, 10 ul compound in serial dilutions (tested concentration range 10 uM-40 nM) and 200 uM L-tryptophan are added (SKV03 receive in addition IFNγ at a final concentration of 50 ng/ml). After 24 hours of incubation at 37° C./5% CO2, 3 ul of the supernatant per well is transferred to 25 ul H2O per well in a 384 deep well plate and 25 ul of the supernatant per well is transferred to waste. The SKOV3 and SW48 cell plates with 25 ul supernatant per well remaining are used to measure viability (see below). The 384 deep well plate containing 3 ul supernatant and 25 ul H2O per well are further processed for LCMS: After the addition of 100 ul L-tryptophan-(indole-d5) (Sigma 615862) at 200 nM in methanol, the 384 deep well plates are centrifuged for 10 minutes at 3220×g at 4° C., 75 ul H2O is added per well and plates centrifuged again for 10 minutes at 3220×g at 4° C. N-formylkynurenine and kynurenine are quantified by LCMS, normalized to the internal standard L-tryptophan-(indole-d5) and the sum is calculated. Samples with 0.2% DMSO (0% effect) and a TDO/IDO inhibitor (100% effect) are used as control samples to set the parameters for the non-linear regression necessary for the determination of the IC50 for each compound. For each compound concentration the percentage of activity compared to 0% and 100% effect is calculated as average±STDEV (each concentration measured in duplicate). IC50 values and curves are generated with XLfit software (IDBS) using Dose-Response One Site model 203. The calculated IC50 values may fluctuate depending on the daily cellular assay performance. Fluctuations of this kind are known to those skilled in the art. When compounds are measured multiple times, mean values are given.
# [1] = target: T2, Recombinant full-length human IDO1 (Homo sapiens, UniProt P14902); assay: IDO1 enzymatic assay (NFK quantified by LCMS); assay type: biochemical; conditions: 2 nM enzyme, 5 μM L-tryptophan, 30 min pre-incubation, pH6.5; mean if measured multiple times; read-out: hIDO activity (IC50 in nM)
# T2 construct: Recombinant full-length human IDO1 with a N-terminal hexahistidine tag; hexahistidine (N); made in house; host or cells: E. coli
# Experimental: 1) Testing Compounds for IDO Inhibitory Activity in an IDO1 Enzymatic Assay:
# Recombinant full-length human IDO1 with a N-terminal hexahistidine tag expressed in E. coli and purified to homogeneity is incubated at a final concentration of 2 nM in assay buffer consisting of 37.5 mM phosphate buffer at pH6.5 supplemented with 10 mM ascorbic acid, 0.45 μM methylene blue, 50 U/ml catalase, 0.01% BSA, and 0.01% Tween 20 (protocol modified from Seegers et al, JBS 2014). Example compounds are serially diluted in DMSO, further diluted in phosphate buffer, and added to the enzyme at final concentrations ranging from 10 μM to 0.5 nM. The final DMSO concentration is 0.6%. Following a pre-incubation of 30 minutes at RT, the reaction is started by the addition of L-tryptophan at a final concentration of 5 μM in assay buffer. After 30 minutes of incubation at RT, 3 μL of the 20 μl reaction mixture are transferred to a 384 deep well plate containing 25 μL of deionized water. 100 μl of 200 nM L-Tryptophan-(indole-d5) in cold 100% methanol are added followed by a 10 minutes centrifugation at 3220×g at 4° C. An additional 75 μL of deionized water are then added followed by a 10 minutes centrifugation at 3220×g at 4° C. The product of the reaction N′-Formylkynurenine (NFK) is quantified by LCMS and normalized to the L-Tryptophan-(indole-d5) signal. Samples with 0.6% DMSO (0% effect) and a TDO/IDO inhibitor (100% effect) are used as control samples to set the parameters for the non-linear regression necessary for the determination of the half-maximal inhibitory concentration (IC50) for each compound. For each compound concentration the percentage of activity compared to 0% and 100% effect is calculated as average±STDEV (each concentration measured in duplicate). IC50 values and curves are generated with XLfit software (IDBS) using Dose-Response One Site model 203 (four parameter logistic curve model). The calculated IC50 values may fluctuate depending on the daily assay performance. Fluctuations of this kind are known to those skilled in the art. When compounds are measured multiple times, mean values are given.
# [2] = target: T3, Recombinant human TDO comprising amino acids 19-407 (Homo sapiens, UniProt P48775); assay: TDO2 enzymatic assay (NFK quantified by LCMS); assay type: biochemical; conditions: 15 nM enzyme, 200 μM L-tryptophan, 30 min pre-incubation, pH7; mean if measured multiple times; read-out: hTDO activity (IC50 in nM)
# T3 construct: human TDO comprising amino acids 19-407; hexahistidine (N); made in house; host or cells: E. coli
# Experimental: 2) Testing Compounds for TDO Inhibitory Activity in a TDO2 Enzymatic Assay:
# Recombinant human TDO comprising amino acids 19-407 with a N-terminal hexahistidine tag expressed in E. coli and purified to homogeneity is incubated at a final concentration of 15 nM in assay buffer consisting of 75 mM phosphate buffer at pH7 supplemented with 100 μM ascorbic acid, 50 U/ml Catalase, 0.01% BSA, and 0.01% Tween 20 (protocol modified from Seegers et al, JBS 2014). Example compounds are serially diluted in DMSO, further diluted in phosphate buffer, and added to the reaction mixture at final concentrations ranging from 10 μM to 0.5 nM. The final DMSO concentration is 0.6%. Following a pre-incubation of 30 minutes at RT, the reaction is started by the addition of L-tryptophan at a final concentration of 200 μM in assay buffer. After 30 minutes of incubation at RT, 3 μL of the reaction mixture are transferred to a 384 deep well plate containing 25 μL of deionized water. 100 μl of 200 nM L-Tryptophan-(indole-d5) in cold 100% methanol are added followed by a 10 minutes centrifugation at 3220×g at 4° C. An additional 75 μL of deionized water are then added followed by a 10 minutes centrifugation at 3220×g at 4° C. The product of the reaction N′-Formylkynurenine (NFK) is quantified by LCMS and normalized to the L-Tryptophan-(indole-d5) signal. Samples with 0.6% DMSO (0% effect) and a TDO/IDO inhibitor (100% effect) are used as control samples to set the parameters for the non-linear regression necessary for the determination of the half-maximal inhibitory concentration (IC50) for each compound. For each compound concentration the percentage of activity compared to 0% and 100% effect is calculated as average±STDEV (each concentration measured in duplicate). IC50 values and curves are generated with XLfit software (IDBS) using Dose-Response One Site model 203 (four parameter logistic curve model). The calculated IC50 values may fluctuate depending on the daily assay performance. Fluctuations of this kind are known to those skilled in the art. When compounds are measured multiple times, mean values are given.
# T2 sequence (P14902 whole entry): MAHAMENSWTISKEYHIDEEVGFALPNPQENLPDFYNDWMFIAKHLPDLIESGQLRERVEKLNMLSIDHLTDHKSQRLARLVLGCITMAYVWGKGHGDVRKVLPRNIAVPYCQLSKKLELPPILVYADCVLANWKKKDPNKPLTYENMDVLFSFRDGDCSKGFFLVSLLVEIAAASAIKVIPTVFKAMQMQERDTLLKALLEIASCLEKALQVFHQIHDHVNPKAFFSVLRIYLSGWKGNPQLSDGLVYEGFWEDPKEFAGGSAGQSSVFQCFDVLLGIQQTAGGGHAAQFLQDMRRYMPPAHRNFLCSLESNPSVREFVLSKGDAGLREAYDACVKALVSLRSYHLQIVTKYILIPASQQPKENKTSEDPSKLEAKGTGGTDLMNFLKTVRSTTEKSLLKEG
# T1 sequence (P14902 whole entry): as above
# T3 sequence (P48775 19-406 limits assumed): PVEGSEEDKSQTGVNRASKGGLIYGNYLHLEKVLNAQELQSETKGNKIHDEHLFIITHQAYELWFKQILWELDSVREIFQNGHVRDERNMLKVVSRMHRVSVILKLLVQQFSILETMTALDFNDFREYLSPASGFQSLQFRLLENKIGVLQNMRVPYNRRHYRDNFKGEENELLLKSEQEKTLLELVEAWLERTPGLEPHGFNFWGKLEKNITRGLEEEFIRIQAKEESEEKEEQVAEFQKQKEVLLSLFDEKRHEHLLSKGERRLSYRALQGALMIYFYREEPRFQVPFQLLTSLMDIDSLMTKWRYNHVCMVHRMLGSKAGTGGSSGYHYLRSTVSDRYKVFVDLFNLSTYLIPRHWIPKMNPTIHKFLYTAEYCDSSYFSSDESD
SMILES,IC50 (IDO1 in SKOV3 cells) [nM],IC50 [1] [nM],IC50 [2] [nM]
"COC(=O)Nc1ccc(-n2cc(C(O)c3c(C4CC4)ccc4cncn34)nn2)cc1 (racemic) [Example 6, rac-(4-{4-[(6-Cyclopropyl-imidazo[1,5-a]pyridin-5-yl)-hydroxy-methyl]-[1,2,3]triazol-1-yl}-phenylycarbamic acid methyl ester]",11.8,9.14,> 10200
"CCOc1ccc(-n2cc(C(O)c3c(C4CC4)ccc4cncn34)nn2)cn1 (racemic) [Example 9, rac-(6-Cyclopropyl-imidazo[1,5-a]pyridin-5-yl)-[1-(6-ethoxy-pyridin-3-yl)-1H-[1,2,3]triazol-4-yl]-methanol]",31.2,5.43,> 10200
"Oc1ccc(-n2cc(C(O)c3c(C4CC4)ncc4cncn34)nn2)cc1Cl (racemic) [Example 10, rac-2-Chloro-4-{4-[(6-cyclopropyl-imidazo[1,5-a]pyrazin-5-yl)-hydroxy-methyl]-[1,2,3]triazol-1-yl}-phenol]",25.4,9.6,> 10200
"COc1ccc(-n2cc(C(O)c3c(C4CC4)ncc4cncn34)nn2)cc1Cl (racemic) [Example 11, rac-[1-(3-Chloro-4-methoxy-phenyl)-1H-[1,2,3]triazol-4-yl]-(6-cyclopropyl-imidazo[1,5-a]pyrazin-5-yl)-methanol]",37.1,12.5,> 10200
"COC(=O)Nc1ccc(-n2cc(C(O)c3c(C4CC4)ncc4cncn34)nn2)cc1 (racemic) [Example 12, rac-(4-{4-[(6-Cyclopropyl-imidazo[1,5-a]pyrazin-5-yl)-hydroxy-methyl]-[1,2,3]triazol-1-yl}-phenyl)-carbamic acid methyl ester]",73.9,21.5,> 10200
"CCOc1ccc(-n2cc(C(O)c3c(C4CC4)ncc4cncn34)nn2)cn1 (racemic) [Example 13, rac-(6-Cyclopropyl-imidazo[1,5-a]pyrazin-5-yl)-[1-(6-ethoxy-pyridin-3-yl)-1H-[1,2,3]triazol-4-yl]-methanol]",326,27.2,> 10200
"Oc1ccc(-n2cc(C(O)c3c(C4CC4)ccc4cncn34)nn2)cc1 (racemic) [Example 14, rac-4-{4-[(6-Cyclopropyl-imidazo[1,5-a]pyridin-5-yl)-hydroxy-methyl]-[1,2,3]triazol-1-yl}-phenol]",34.6,5.05,> 10200

# Second part, the molecule after the results:
IC50 (IDO1 in SKOV3 cells) [nM],IC50 [1] [nM],IC50 [2] [nM],SMILES
53.7,4.83,> 10200,"Cc1ccc(-n2cc(C(O)c3c(C4CC4)ccc4cncn34)nn2)cc1 (racemic) [Example 5, rac-(6-Cyclopropyl-imidazo[1,5-a]pyridin-5-yl)-(1-p-tolyl-1H-[1,2,3]triazol-4-yl)-methanol]"
6.12,3.77,> 10200,"Oc1ccc(-n2cc(C(O)c3c(C4CC4)ccc4cncn34)nn2)cc1Cl (racemic) [Example 7, rac-2-Chloro-4-{4-[(6-cyclopropyl-imidazo[1,5-a]pyridin-5-yl)-hydroxy-methyl]-[1,2,3]triazol-1-yl}-phenol]"
8.8,7.41,> 10200,"COc1ccc(-n2cc(C(O)c3c(C4CC4)ccc4cncn34)nn2)cc1Cl (racemic) [Example 8, rac-[1-(3-Chloro-4-methoxy-phenyl)-1H-[1,2,3]triazol-4-yl]-(6-cyclopropyl-imidazo[1,5-a]pyridin-5-yl)-methanol]"
208,13.1,9610,"Oc1ccc(-n2cc(C(O)c3c(C4CC4)ncc4cncn34)nn2)cc1 (racemic) [Example 15, rac-4-{4-[(6-Cyclopropyl-imidazo[1,5-a]pyrazin-5-yl)-hydroxy-methyl]-[1,2,3]triazol-1-yl}-phenol]"
94.6,33.2,> 10200,"OC(c1cn(-c2ccc(OCC3(F)COC3)cc2)nn1)c1c(C2CC2)ncc2cncn12 (racemic) [Example 16, rac-(6-Cyclopropyl-imidazo[1,5-a]pyrazin-5-yl)-{1-[4-(3-fluoro-oxetan-3-ylmethoxy)-phenyl]-1H-[1,2,3]triazol-4-yl}-methanol]"
172,20.4,> 10200,"COc1ccc(-n2cc(C(O)c3c(C4CC4)ncc4cncn34)nn2)cc1 (racemic) [Example 17, rac-(6-Cyclopropyl-imidazo[1,5-a]pyrazin-5-yl)-[1-(4-methoxy-phenyl)-1H-[1,2,3]triazol-4-yl]-methanol]"
140,33.2,> 10200,"CC(C)(O)COc1ccc(-n2cc(C(O)c3c(C4CC4)ncc4cncn34)nn2)cc1 (racemic) [Example 18, rac-1-(4-{4-[(6-Cyclopropyl-imidazo[1,5-a]pyrazin-5-yl)-hydroxy-methyl]-[1,2,3]triazol-1-yl}-phenoxy)-2-methyl-propan-2-ol]"
